From patent US10435399B2, “HDAC6 inhibitory heterocyclic compound” (TAKEDA PHARMACEUTICAL COMPANY LIMITED, priority 2017, dated 2019)

Biological target: T1, HDAC6 enzyme (Homo sapiens, UniProt Q9UBN7)
T1 construct: transducing full length HDAC6 gene into Sf-9 insect cells; GST; purchased SignalChem; host or cells: Sf-9 insect cells
T1 sequence (Q9UBN7 1-1215): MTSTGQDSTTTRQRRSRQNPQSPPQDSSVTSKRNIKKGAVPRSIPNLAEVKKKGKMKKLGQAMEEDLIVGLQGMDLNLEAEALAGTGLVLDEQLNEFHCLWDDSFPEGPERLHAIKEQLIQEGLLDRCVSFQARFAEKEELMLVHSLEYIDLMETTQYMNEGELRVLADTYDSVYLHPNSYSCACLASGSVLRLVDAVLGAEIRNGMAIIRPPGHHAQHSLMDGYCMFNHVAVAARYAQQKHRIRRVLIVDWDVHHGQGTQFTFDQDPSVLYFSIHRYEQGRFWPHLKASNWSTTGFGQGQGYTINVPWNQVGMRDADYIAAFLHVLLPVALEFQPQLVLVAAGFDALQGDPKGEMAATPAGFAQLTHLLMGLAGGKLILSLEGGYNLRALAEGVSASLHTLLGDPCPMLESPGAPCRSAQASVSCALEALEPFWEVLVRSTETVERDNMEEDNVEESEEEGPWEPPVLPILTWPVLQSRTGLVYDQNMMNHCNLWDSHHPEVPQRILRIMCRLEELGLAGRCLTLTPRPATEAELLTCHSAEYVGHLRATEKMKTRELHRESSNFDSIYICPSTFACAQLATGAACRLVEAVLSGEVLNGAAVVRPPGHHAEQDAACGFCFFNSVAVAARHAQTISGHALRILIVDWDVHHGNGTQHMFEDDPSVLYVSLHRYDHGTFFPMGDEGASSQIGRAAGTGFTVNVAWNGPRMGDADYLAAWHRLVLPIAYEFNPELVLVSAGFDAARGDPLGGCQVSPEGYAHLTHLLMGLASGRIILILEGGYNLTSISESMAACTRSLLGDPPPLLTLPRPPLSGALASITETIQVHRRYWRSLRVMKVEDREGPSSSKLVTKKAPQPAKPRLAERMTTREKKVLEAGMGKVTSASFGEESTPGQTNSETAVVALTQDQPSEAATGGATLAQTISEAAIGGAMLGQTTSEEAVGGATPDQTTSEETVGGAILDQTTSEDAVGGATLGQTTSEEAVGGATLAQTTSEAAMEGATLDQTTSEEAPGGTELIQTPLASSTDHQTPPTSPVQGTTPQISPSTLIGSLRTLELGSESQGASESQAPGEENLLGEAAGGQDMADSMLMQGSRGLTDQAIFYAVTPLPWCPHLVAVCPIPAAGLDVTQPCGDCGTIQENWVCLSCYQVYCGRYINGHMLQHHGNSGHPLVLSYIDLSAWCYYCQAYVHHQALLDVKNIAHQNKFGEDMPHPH
Test: HDAC6 enzyme inhibitory activity (HDAC-Glo I/II Assay kit)
Format: biochemical
Details: 10 μM; wells without enzyme = 100% inhibition; read-out: HDAC6 inhibitory rate (%) (10 μM)
Summary of the method: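 Luminescence read-out after 20 min reaction with HDAC-Glo substrate-developer, following 60 min room-temperature preincubation of compound with Sf-9-expressed, GST-purified full-length enzyme. Inhibition is relative to no-enzyme wells set as 100%.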

Row | SMILES | inhibition at 10 µM [%]
1 | Cn1cc(-c2cccc3ccnn23)c(N2Cc3ccc(-c4nnc(C(F)F)o4)cc3C2=O)n1 [Example 481, 6-(5-(difluoro-methyl)-1,3,4-oxadiazol-2-yl)-2-(1-methyl-4-(pyrazolo[1,5-a]pyridin-7-yl)-1H-pyrazol-3-yl)isoindolin-1-one] | 98
2 | O=C1c2cc(-c3nnc(C(F)F)o3)ccc2CN1c1ccc(F)cc1-n1cc(Br)cn1 [Example 482, 2-(2-(4-bromo-1H-pyrazol-1-yl)-4-fluoro-phenyl)-6-(5-(difluoro-methyl)-1,3,4-oxadiazol-2-yl) isoindolin-1-one] | 100
3 | O=C1c2cc(-c3nnc(C(F)F)o3)ccc2CN1c1ccc(OC(F)(F)F)cc1Br [Example 483, 2-(2-bromo-4-(trifluoro-methoxy)phenyl)-6-(5-(difluoro-methyl)-1,3,4-oxadiazol-2-yl) isoindolin-1-one] | 91
4 | COc1ccc(N2Cc3ccc(-c4nnc(C(F)F)o4)cc3C2=O)c(-c2ccccc2)c1 [Example 484, 6-(5-(difluoro-methyl)-1,3,4-oxadiazol-2-yl)-2-(5-methoxy-biphenyl-2-yl) isoindolin-1-one] | 100
5 | O=C1c2cc(-c3nnc(C(F)F)o3)ccc2CN1c1ccc(OC(F)(F)F)cc1-c1ccccc1 [Example 485, 6-(5-(difluoro-methyl)-1,3,4-oxadiazol-2-yl)-2-(5-(trifluoro-methoxy)biphenyl-2-yl) isoindolin-1-one] | 100
6 | O=C1c2cc(-c3nnc(C(F)F)o3)ccc2CN1c1ccc(F)cc1-n1cc(C2CC2)cn1 [Example 486, 2-(2-(4-cyclo-propyl-1H-pyrazol-1-yl)-4-fluorophenyl)-6-(5-(difluoro-methyl)-1,3,4-oxadiazol-2-yl) isoindolin-1-one] | 100
7 | O=C1c2cc(-c3nnc(C(F)F)o3)ccc2CN1c1ccccc1Cc1ccccc1 [Example 487, 2-(2-benzyl-phenyl)-6-(5-(difluoro-methyl)-1,3,4-oxadiazol-2-yl) isoindolin-1-one] | 99
8 | CCc1cnn(-c2cc(F)ccc2N2Cc3ccc(-c4nnc(C(F)F)o4)cc3C2=O)c1 [Example 488, 6-(5-(difluoro-methyl)-1,3,4-oxadiazol-2-yl)-2-(2-(4-ethyl-1H-pyrazol-1-yl)-4-fluoro-phenyl) isoindolin-1-one] | 100
9 | O=C1c2cc(-c3nnc(C(F)F)o3)ccc2CN1N1CCCCC1c1ccccc1 (stereo not drawn) [Example 490, 6-(5-(difluoro-methyl)-1,3,4-oxadiazol-2-yl)-2-(2-phenyl-piperidin-1-yl) isoindolin-1-one] | 98
10 | O=C1c2cc(-c3nnc(C(F)F)o3)ccc2CN1N1CCCC1c1ccccc1 (stereo not drawn) [Example 491, 6-(5-(difluoro-methyl)-1,3,4-oxadiazol-2-yl)-2-(2-phenyl-pyrrolidin-1-yl) isoindolin-1-one] | 99
11 | Cn1cc(N2Cc3ccc(-c4nnc(C(F)F)o4)cc3C2=O)c(Br)n1 [Example 492, 2-(3-bromo-1-methyl-1H-pyrazol-4-yl)-6-(5-(difluoro-methyl)-1,3,4-oxadiazol-2-yl) isoindolin-1-one] | 91
12 | Cn1cc(N2Cc3ccc(-c4nnc(C(F)F)o4)cc3C2=O)c(-c2ccccc2)n1 [Example 493, 6-(5-(difluoro-methyl)-1,3,4-oxadiazol-2-yl)-2-(1-methyl-3-phenyl-1H-pyrazol-4-yl) isoindolin-1-one] | 99
13 | COC(=O)N1CC[C@@H](N2Cc3ncc(-c4nnc(C(F)F)o4)cc3C2=O)[C@H](c2ccc(F)cc2)C1 [Example 494, methyl (3R,4R)-4-(3-(5-(difluoro-methyl)-1,3,4-oxadiazol-2-yl)-5-oxo-5,7-dihydro-6H-pyrrolo[3,4-b]pyridin-6-yl)-3-(4-fluoro-phenyl) piperidine-1-carboxylate] | 100
14 | N[C@@H]1CCCC(F)(F)[C@H]1N1Cc2ncc(-c3nnc(C(F)F)o3)cc2C1=O [Example 495, 6-((1S,6R)-6-amino-2,2-difluorocyclo-hexyl)-3-(5-(difluoro-methyl)-1,3,4-oxadiazol-2-yl)-6,7-dihydro-5H-pyrrolo [3,4-b] pyridin-5-one] | 89
15 | CC(C)(C)OC(=O)N[C@@H]1CCCC(F)(F)[C@H]1N1Cc2ncc(-c3nnc(C(F)F)o3)cc2C1=O [Example 496, tert-butyl ((1R,2S)-2-(3-(5-(difluoro-methyl)-1,3,4-oxadiazol-2-yl)-5-oxo-5,7-dihydro-6H-pyrrolo[3,4-b]pyridin-6-yl)-3,3-difluoro-cyclohexyl) carbamate] | 100
16 | O=C1c2cc(-c3nnc(C(F)F)o3)cnc2CN1[C@H]1[C@H](NC(=O)C(F)(F)C(F)(F)F)CCCC1(F)F [Example 497, N-((1R,2S)-2-(3-(5-(difluoro-methyl)-1,3,4-oxadiazol-2-yl)-5-oxo-5,7-dihydro-6H-pyrrolo[3,4-b]pyridin-6-yl)-3,3-difluoro-cyclohexyl)-2,2,3,3,3-pentafluoro-propanamide] | 101

Further lines, results first:

Row | inhibition at 10 µM [%] | SMILES
17 | 100 | O=C(C1CC1)N1CC[C@@H](N2Cc3ncc(-c4nnc(C(F)F)o4)cc3C2=O)[C@H](c2ccc(F)cc2)C1 [Example 498, 6-((3R,4R)-1-(cyclopropyl-carbonyl)-3-(4-fluorophenyl)piperidin-4-yl)-3-(5-(difluoro-methyl)-1,3,4-oxadiazol-2-yl)-6,7-dihydro-5H-pyrrolo [3,4-b]pyridin-5-one]
18 | 99 | COC(=O)N1CC[C@@H](N2Cc3ncc(-c4nnc(C(F)F)o4)cc3C2=O)[C@H](c2ccc(F)c(F)c2)C1 [Example 499, methyl (3R,4R)-4-(3-(5-(difluoro-methyl)-1,3,4-oxadiazol-2-yl)-5-oxo-5,7-dihydro-6H-pyrrolo[3,4-b]pyridin-6-yl)-3-(3,4-difluoro-phenyl) piperidine-1-carboxylate]
19 | 99 | CC(F)(F)C(=O)N[C@@H]1CCCC(F)(F)[C@H]1N1Cc2ncc(-c3nnc(C(F)F)o3)cc2C1=O [Example 500, N-((1R,2S)-2-(3-(5-(difluoro-methyl)-1,3,4-oxadiazol-2-yl)-5-oxo-5,7-dihydro-6H-pyrrolo[3,4-b]pyridin-6-yl)-3,3-difluoro-cyclohexyl)-2,2-difluoro-propanamide]
20 | 98 | O=C1c2cc(-c3nnc(C(F)F)o3)ccc2CN1N1CCOCC1c1ccccc1 (stereo not drawn) [Example 501, 6-(5-(difluoro-methyl)-1,3,4-oxadiazol-2-yl)-2-(3-phenyl-morpholin-4-yl) isoindolin-1-one]
21 | 100 | O=C1c2cc(-c3nnc(C(F)F)o3)cnc2CN1[C@@H]1CCCC[C@H]1n1cnc2ccccc21 [Example 502, 6-((1R,2R)-2-(1H-benzimidazol-1-yl)cyclohexyl)-3-(5-(difluoromethyl)-1,3,4-oxadiazol-2-yl)-6,7-dihydro-5H-pyrrolo[3,4-b]pyridin-5-one]
22 | 99 | Cc1nc2ccccc2n1[C@@H]1CCCC[C@H]1N1Cc2ncc(-c3nnc(C(F)F)o3)cc2C1=O [Example 503, 3-(5-(difluoromethyl)-1,3,4-oxadiazol-2-yl)-6-((1R,2R)-2-(2-methyl-1H-benzimidazol-1-yl)cyclohexyl)-6,7-dihydro-5H-pyrrolo[3,4-b]pyridin-5-one]
23 | 100 | COC(=O)N1CC[C@@H](N2Cc3ccc(-c4nnc(C(F)F)o4)cc3C2=O)[C@H](c2ccc(F)cc2)C1 [Example 505, methyl (3R,4R)-4-(6-(5-(difluoro-methyl)-1,3,4-oxadiazol-2-yl)-1-oxo-1,3-dihydro-2H-isoindol-2-yl)-3-(4-fluoro-phenyl) piperidine-1-carboxylate]
24 | 99 | CC(F)(F)C(=O)N1CC[C@@H](N2Cc3ccc(-c4nnc(C(F)F)o4)cc3C2=O)[C@H](c2ccc(F)cc2)C1 [Example 506, 6-(5-(difluoro-methyl)-1,3,4-oxadiazol-2-yl)-2-((3R,4R)-1-(2,2-difluoro-propanoyl)-3-(4-fluorophenyl)piperidin-4-yl) isoindolin-1-one]
